In this assay the target is T1, Human TRPC6 (Homo sapiens, UniProt Q9Y210).
T1 construct: expressed in transfected cells
T1 sequence (Q9Y210 1-931): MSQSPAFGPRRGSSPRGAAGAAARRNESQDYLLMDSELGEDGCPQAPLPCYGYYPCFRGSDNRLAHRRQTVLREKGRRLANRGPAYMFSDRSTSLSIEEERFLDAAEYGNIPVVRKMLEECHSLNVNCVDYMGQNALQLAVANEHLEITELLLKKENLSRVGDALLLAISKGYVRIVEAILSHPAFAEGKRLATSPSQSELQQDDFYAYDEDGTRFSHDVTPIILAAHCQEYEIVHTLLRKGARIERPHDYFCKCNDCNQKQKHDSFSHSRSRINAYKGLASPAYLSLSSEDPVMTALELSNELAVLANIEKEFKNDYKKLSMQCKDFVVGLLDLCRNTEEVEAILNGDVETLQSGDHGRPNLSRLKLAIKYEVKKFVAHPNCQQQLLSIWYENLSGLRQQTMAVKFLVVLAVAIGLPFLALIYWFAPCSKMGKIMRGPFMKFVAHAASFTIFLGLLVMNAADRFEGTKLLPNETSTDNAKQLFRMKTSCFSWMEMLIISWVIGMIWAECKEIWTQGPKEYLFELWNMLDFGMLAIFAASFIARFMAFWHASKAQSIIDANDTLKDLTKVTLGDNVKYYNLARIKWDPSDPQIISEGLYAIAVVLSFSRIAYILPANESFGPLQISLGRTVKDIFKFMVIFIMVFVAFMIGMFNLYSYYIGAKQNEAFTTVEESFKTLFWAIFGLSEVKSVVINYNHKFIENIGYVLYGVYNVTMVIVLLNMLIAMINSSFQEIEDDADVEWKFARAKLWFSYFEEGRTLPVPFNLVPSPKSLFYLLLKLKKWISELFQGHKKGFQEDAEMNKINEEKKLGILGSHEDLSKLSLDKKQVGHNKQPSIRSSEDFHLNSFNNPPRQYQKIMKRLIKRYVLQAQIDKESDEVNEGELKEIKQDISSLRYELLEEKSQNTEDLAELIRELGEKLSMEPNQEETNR
As to the kind of experiment: Evaluation of TRPC6 channel inhibitory activity (1), FLIPR Calcium 5 Assay Kit, OAG stimulation (Compound Nos. 1-1293). The following applies: Human TRPC6 stably-expressing cells, OAG 30 μM, FLIPR Calcium 5 Assay Kit; read-out: Inhibitory activity (pIC50 class) (converted). In kind it is cell-based. The procedure, abridged: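 Stable human TRPC6 line; fluorescent Ca2+ dye loading, then 20 min compound exposure before 30 μM OAG trigger. Peak-minus-baseline signal converted to % inhibition against untreated and unstimulated wells; potency given as pIC50 band.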

The record followed here is patent US20230167073A1 (Teijin Pharma Limited, priority 2020, published 2023).

For `Cc1cc(Oc2cc(C#N)ccc2-c2ncc(CCN)cn2)cc(NC(C)C)n1` [compound 461, 4-[5-(2-aminoethyl)pyrimidin-2-yl]-3-[2-methyl-6-(propan-2-ylamino)pyridin-4-yl]oxybenzonitrile], the IC50 was below 10 nM.

For the molecule `Cc1cc(Oc2cc(C#N)ccc2-c2ncc(C3(N)CC3)cn2)cc(N2CCOCC2)n1` [compound 462, 4-[5-(1-aminocyclopropyl)pyrimidin-2-yl]-3-(2-methyl-6-morpholin-4-ylpyridin-4-yl)oxybenzonitrile], the IC50 is above 1000 nM.

As for `Cn1nc(C2CC2)cc1Oc1cc(C#N)ccc1-c1ncc(C2(N)CC2)cn1` [compound 463, 4-[5-(1-aminocyclopropyl)pyrimidin-2-yl]-3-(5-cyclopropyl-2-methylpyrazol-3-yl)oxybenzonitrile], the IC50 is above 1000 nM.

Consider `Cc1cc(Oc2cc(C#N)ccc2-c2ccc(CCN)cn2)cc(N2CCN(C)C(=O)C2)n1` [compound 464, 4-[5-(2-aminoethyl)pyridin-2-yl]-3-[2-methyl-6-(4-methyl-3-oxopiperazin-1-yl)pyridin-4-yl]oxybenzonitrile], for which the IC50 is above 1000 nM.

Take `Cc1cc(Oc2cc(C#N)ccc2-c2ncc(CCN)cn2)cc(N2CCN(C)C(=O)C2)n1` [compound 465, 4-[5-(2-aminoethyl)pyrimidin-2-yl]-3-[2-methyl-6-(4-methyl-3-oxopiperazin-1-yl)pyridin-4-yl]oxybenzonitrile]: the IC50 is above 1000 nM.

For `Cc1ccc(-c2cc(Oc3cc(C#N)ccc3-c3ncc(CCN)cn3)cc(C)n2)nn1` [compound 466, 4-[5-(2-aminoethyl)pyrimidin-2-yl]-3-[2-methyl-6-(6-methylpyridazin-3-yl)pyridin-4-yl]oxybenzonitrile], the IC50 is above 1000 nM.

Take `Cc1nc(Oc2cc(C#N)ccc2-c2ncc(CN)cn2)cc(N2CCOCC2)n1` [compound 467, 4-[5-(aminomethyl)pyrimidin-2-yl]-3-(2-methyl-6-morpholin-4-ylpyrimidin-4-yl)oxybenzonitrile]: the IC50 is below 10 nM.

On to `Cn1nc(C2CC2)cc1Oc1cc(C#N)ccc1-c1cc(N)nc2ccnn12` [compound 468, 4-(5-aminopyrazolo[1,5-a]pyrimidin-7-yl)-3-(5-cyclopropyl-2-methylpyrazol-3-yl)oxybenzonitrile], for which the IC50 is above 1000 nM.

For the molecule `Cn1nc(-c2ccccc2)cc1Oc1cc(C#N)ccc1-c1ccc(C(N)CO)cn1` (centres unmarked) [compound 469, 4-[5-(1-amino-2-hydroxyethyl)pyridin-2-yl]-3-(2-methyl-5-phenylpyrazol-3-yl)oxybenzonitrile], the IC50 is below 10 nM.

Regarding `Cc1cc(Oc2cc(C#N)ccc2-c2ncc(CCN)cn2)cc(N2CCOC[C@H]2C)n1` [compound 470, 4-[5-(2-aminoethyl)pyrimidin-2-yl]-3-[2-methyl-6-[(3R)-3-methylmorpholin-4-yl]pyridin-4-yl]oxybenzonitrile], the IC50 is below 10 nM.

Take `Cc1cc(Oc2cc(C#N)ccc2-c2ncc(CCN)cn2)cc(N2CCOC[C@@H]2C)n1` [compound 471, 4-[5-(2-aminoethyl)pyrimidin-2-yl]-3-[2-methyl-6-[(3S)-3-methylmorpholin-4-yl]pyridin-4-yl]oxybenzonitrile]: the IC50 is below 10 nM.

Turning to `Cc1nc(Oc2cc(C#N)ccc2-c2ncc(CN)cn2)cc(-c2ccccn2)n1` [compound 472, 4-[5-(aminomethyl)pyrimidin-2-yl]-3-(2-methyl-6-pyridin-2-ylpyrimidin-4-yl)oxybenzonitrile], the IC50 is 10 to 1000 nM.

Take `Cc1cc(Oc2cc(C#N)ccc2-c2ncc(CCN)cn2)cc(OCC2CCO2)n1` (centres unmarked) [compound 473, 4-[5-(2-aminoethyl)pyrimidin-2-yl]-3-[2-methyl-6-(oxetan-2-ylmethoxy)pyridin-4-yl]oxybenzonitrile]: the IC50 was 10 to 1000 nM.

`Cc1nc(Oc2cc(C#N)ccc2-c2ncc(CN)cn2)cc(-c2ccc(F)cn2)n1` [compound 474, 4-[5-(aminomethyl)pyrimidin-2-yl]-3-[6-(5-fluoropyridin-2-yl)-2-methylpyrimidin-4-yl]oxybenzonitrile]: the IC50 is above 1000 nM.

Regarding `Cn1nc(C2CC2)cc1Oc1cc(C#N)ccc1-c1cccc2nc(N)nn12` [compound 475, 4-(2-amino-[1,2,4]triazolo[1,5-a]pyridin-5-yl)-3-(5-cyclopropyl-2-methylpyrazol-3-yl)oxybenzonitrile], the IC50 is above 1000 nM.

`Cc1cc(Oc2cc(C#N)ccc2-c2ncc(CC(C)(C)N)cn2)cc(N2CCOCC2)n1` [compound 476, 4-[5-(2-amino-2-methylpropyl)pyrimidin-2-yl]-3-(2-methyl-6-morpholin-4-ylpyridin-4-yl)oxybenzonitrile]: the IC50 was 10 to 1000 nM.

With `Cn1nc(C2CC2)cc1Oc1cc(C#N)ccc1-c1ncc(CC(C)(C)N)cn1` [compound 477, 4-[5-(2-amino-2-methylpropyl)pyrimidin-2-yl]-3-(5-cyclopropyl-2-methylpyrazol-3-yl)oxybenzonitrile], the IC50 is below 10 nM.

Take `Cc1cc(Oc2cc(C#N)ccc2-c2ccc([C@H](O)CN)cn2)cc(OCC2CCCO2)n1` (stereo partly drawn) [compound 478, 4-[5-[(1S)-2-amino-1-hydroxyethyl]pyridin-2-yl]-3-[2-methyl-6-(oxolan-2-ylmethoxy)pyridin-4-yl]oxybenzonitrile]: the IC50 is 10 to 1000 nM.

Take `Cc1cc(Oc2cc(C#N)ccc2-c2ccc([C@H](O)CN)cn2)cc(OCCOC(C)C)n1` [compound 479, 4-[5-[(1S)-2-amino-1-hydroxyethyl]pyridin-2-yl]-3-[2-methyl-6-(2-propan-2-yloxyethoxy)pyridin-4-yl]oxybenzonitrile]: the IC50 was above 1000 nM.

`Cn1nc(C2CC2)cc1Oc1cc(C#N)ccc1-c1cccc(CN)n1` [compound 480, 4-[6-(aminomethyl)pyridin-2-yl]-3-(5-cyclopropyl-2-methylpyrazol-3-yl)oxybenzonitrile]: the IC50 is above 1000 nM.

Regarding `Cn1nc(C2CC2)cc1Oc1cc(C#N)ccc1-c1cccc(CCN)n1` [compound 481, 4-[6-(2-aminoethyl)pyridin-2-yl]-3-(5-cyclopropyl-2-methylpyrazol-3-yl)oxybenzonitrile], the IC50 was above 1000 nM.

Regarding `Cn1nc(C2CC2)cc1Oc1cc(C#N)ccc1-c1cc(CCN)ccn1` [compound 482, 4-[4-(2-aminoethyl)pyridin-2-yl]-3-(5-cyclopropyl-2-methylpyrazol-3-yl)oxybenzonitrile], the IC50 is below 10 nM.

Regarding `Cn1nc(C2CCCO2)cc1Oc1cc(C#N)ccc1-c1ncc(CCN)cn1` (centres unmarked) [compound 483, 4-[5-(2-aminoethyl)pyrimidin-2-yl]-3-[2-methyl-5-(oxolan-2-yl)pyrazol-3-yl]oxybenzonitrile], the IC50 was below 10 nM.

Consider `Cn1nc(C2CCCO2)cc1Oc1cc(C#N)ccc1-c1ccc(CCN)cn1` (centres unmarked) [compound 484, 4-[5-(2-aminoethyl)pyridin-2-yl]-3-[2-methyl-5-(oxolan-2-yl)pyrazol-3-yl]oxybenzonitrile], for which the IC50 was below 10 nM.

For `Cn1nc(N2CCOCC2)cc1Oc1cc(C#N)ccc1-c1ccc(CCN)cn1` [compound 485, 4-[5-(2-aminoethyl)pyridin-2-yl]-3-(2-methyl-5-morpholin-4-ylpyrazol-3-yl)oxybenzonitrile], the IC50 was below 10 nM.

With `Cn1nc(C2CC2)cc1Oc1cc(C#N)ccc1-c1ccc(C(N)C(=O)N2CCCCC2)cn1` (centres unmarked) [compound 486, 4-[5-(1-amino-2-oxo-2-piperidin-1-ylethyl)pyridin-2-yl]-3-(5-cyclopropyl-2-methylpyrazol-3-yl)oxybenzonitrile], the IC50 is above 1000 nM.

`CCN(CC)C(=O)C(N)c1ccc(-c2ccc(C#N)cc2Oc2cc(C3CC3)nn2C)nc1` (centres unmarked) [compound 488, 2-amino-2-[6-[4-cyano-2-(5-cyclopropyl-2-methylpyrazol-3-yl)oxyphenyl]pyridin-3-yl]-N,N-diethylacetamide]: the IC50 was above 1000 nM.

Regarding `CN(C)C(=O)C(N)c1ccc(-c2ccc(C#N)cc2Oc2cc(C3CC3)nn2C)nc1` (centres unmarked) [compound 489, 2-amino-2-[6-[4-cyano-2-(5-cyclopropyl-2-methylpyrazol-3-yl)oxyphenyl]pyridin-3-yl]-N,N-dimethylacetamide], the IC50 was above 1000 nM.

On to `CC(C)NC(=O)C(N)c1ccc(-c2ccc(C#N)cc2Oc2cc(C3CC3)nn2C)nc1` (centres unmarked) [compound 490, 2-amino-2-[6-[4-cyano-2-(5-cyclopropyl-2-methylpyrazol-3-yl)oxyphenyl]pyridin-3-yl]-N-propan-2-ylacetamide], for which the IC50 was above 1000 nM.
